Source: patent US10597314B2, “Fatty acid biodispersant and methods of use” (General Electric Company, priority 2013, dated 2020)

What was measured:
Microbial Biofilms = details: as stated in the Article; cited from earlier work
biofilms = assay: Applicant's testing of the amount of cis-2-decenoic acid needed for sufficient activity; format: cell-based; details: relative to the Article's 1.0 nM to 10 mM
From the text: An article titled A Fatty Acid Messenger Is Responsible for Inducing Dispersion in Microbial Biofilms, published in March 2009 in the Journal of Bacteriology (“Article”) is incorporated by reference herein in its entirety. The Article discloses that cis-2-decenoic acid may be used to disperse biofilms.

Compound | amount needed for activity (biofilm dispersion) (Microbial Biofilms) | actual amount needed for sufficient activity (biofilms)
CCCCCCC/C=C/C(=O)O [trans-2-decenoic acid] | in the mM range | 
CCCCCCC/C=C\C(=O)O [cis-2-decenoic acid] |  | several times more than that
